Assay results published in publication PMC7855930, “Nontoxic Cobalt(III) Schiff Base Complexes with Broad‐Spectrum Antifungal Activity” (Chemistry (Weinheim an Der Bergstrasse, Germany), 2020).

Tested on: C. deuterogattii ATCC 32609
Assay: Antifungal MIC assay (broth microdilution in YNB)
Type: cell-based, Cryptococcus deuterogattii
Settings: Table S1
Excerpt: (§1) Yeast strains: Candida albicans (ATCC 90028, NCCLS 11), Cryptococcus neoformans (ATCC 208821, H99 type strain), Candida tropicalis (ATCC 750, type strain), Candida glabrata (ATCC 90030, NCCLS 84) and Cryptococcus deuterogattii (ATCC 32609, type strain) were obtained from the American Type Culture Collection (ATCC). Cryptococcus deuterogattii (CBS 7750), Candida auris (CBS 10913) and Candida auris (CBS 12373) were obtained from the CBS‐KNAW culture collection. The strains were maintained on glycerol/YPD (yeast extract‐peptone dextrose) broth (20:80 v/v) at −80 °C.
(§2) Antifungal minimum inhibitory concentration (MIC) assay: The cobalt complexes and antifungal control compounds were serially diluted in 50 μL of Yeast Nitrogen Broth (YNB; BD, Cat No. 233520 supplemented with 2 % glucose and 10 mM ammonium sulfate) two‐fold across the wells of non‐binding surface (NBS) 96‐well plates (Corning; Cat. No. 3641). Plates were set up in quadruplicate for each strain tested, and two biological replicates were conducted on separate assay days.
(§3) Yeast strains were cultured from glycerol onto YPD (Becton Dickinson 242720) agar at 30 °C for 72 h. For each strain, a minimum of five single colonies were taken from the agar plate and dissolved in sterile water and adjusted to form a yeast suspension of 1×10^6 to 5×10^6 CFU mL^−1 (as determined by OD530). The suspension was subsequently diluted into YNB media, and added to each well of the compound containing plates, giving a final cell density of 2.5×10^3 CFU mL^−1 and a total volume of 100 μL. Plates were covered and incubated at 35 °C for 36 h without shaking.
(§4) Growth inhibition of all strains was determined visually where the MIC was recorded as the lowest compound concentration with no visible growth. Fluconazole (Sigma F8929), ketoconazole (Sigma K1003) and micafungin (Sigma SML2288) were used as internal positive inhibitor controls for every strain tested.

Molecule | MIC Cryptococcus deuterogattii ATCC 32609
CC1=[N+]2N=C(N)[S][Co-3]23([n+]2ccc(N(C)C)cc2)([n+]2ccc(N(C)C)cc2)[S]C(N)=N[N+]3=C1C.O=[N+]([O-])[O-] [Compound 3, [Co(ATS)(DMAP)2]NO3] | 0.93 to 1.86 µg/mL
O=[N+]([O-])[O-].[NH3+][Co-3]123([NH3+])[O]c4c(F)cccc4C=[N+]1c1ccccc1[N+]2=Cc1cccc(F)c1[O]3 [Compound 7, [Co(3F‐salophen)(NH3)2]NO3] | 47.8 µg/mL
O=[N+]([O-])[O-].O=[N+]([O-])[O-].[Co+2] [Co, Co(NO3)2, reference compound] | > 29.1 µg/mL
[Co(3F‐salophen)(3F‐BnNH2)2]NO3 [Compound 6] | 69.4 µg/mL

Same assay, conditions: range of MICs, n=8; 35 °C, 36 h, visual

Molecule | MIC C. deuterogattii ATCC 32609
CC1=[N+]2N=C(N)[S][Co-3]23([n+]2ccc(N(C)C)cc2)([n+]2ccc(N(C)C)cc2)[S]C(N)=N[N+]3=C1C.O=[N+]([O-])[O-] [Compound 3, [Co(ATS)(DMAP)2]NO3] | 1.56 to 3.12 µM

Same assay, conditions: range of MICs, n=8; 35 °C, 36 h, visual; read-out: MIC C. deuterogattii ATCC 32609

Molecule | MIC
O=[N+]([O-])[O-].[NH3+][Co-3]123([NH3+])[O]c4c(F)cccc4C=[N+]1c1ccccc1[N+]2=Cc1cccc(F)c1[O]3 [Compound 7, [Co(3F‐salophen)(NH3)2]NO3] | 100 µM
O=[N+]([O-])[O-].O=[N+]([O-])[O-].[Co+2] [Co, Co(NO3)2, reference compound] | >100 µM
[Co(3F‐salophen)(3F‐BnNH2)2]NO3 [Compound 6] | 100 µM

Tested on: C. deuterogattii CBS 7750
Assay: Antifungal MIC assay (broth microdilution in YNB)
Type: cell-based, Cryptococcus deuterogattii
Settings: Table S1
Excerpt: as §1, §2, §3, §4

Molecule | MIC Cryptococcus deuterogattii CBS 7750
CC1=[N+]2N=C(N)[S][Co-3]23([n+]2ccc(N(C)C)cc2)([n+]2ccc(N(C)C)cc2)[S]C(N)=N[N+]3=C1C.O=[N+]([O-])[O-] [Compound 3, [Co(ATS)(DMAP)2]NO3] | 0.93 µg/mL
O=[N+]([O-])[O-].[NH3+][Co-3]123([NH3+])[O]c4c(F)cccc4C=[N+]1c1ccccc1[N+]2=Cc1cccc(F)c1[O]3 [Compound 7, [Co(3F‐salophen)(NH3)2]NO3] | 47.8 µg/mL
O=[N+]([O-])[O-].O=[N+]([O-])[O-].[Co+2] [Co, Co(NO3)2, reference compound] | > 29.1 µg/mL
[Co(3F‐salophen)(3F‐BnNH2)2]NO3 [Compound 6] | > 69.4 µg/mL

Same assay, conditions: range of MICs, n=8; 35 °C, 36 h, visual; read-out: MIC C. deuterogattii CBS 7750

Molecule | MIC
CC1=[N+]2N=C(N)[S][Co-3]23([n+]2ccc(N(C)C)cc2)([n+]2ccc(N(C)C)cc2)[S]C(N)=N[N+]3=C1C.O=[N+]([O-])[O-] [Compound 3, [Co(ATS)(DMAP)2]NO3] | 1.56 µM
O=[N+]([O-])[O-].[NH3+][Co-3]123([NH3+])[O]c4c(F)cccc4C=[N+]1c1ccccc1[N+]2=Cc1cccc(F)c1[O]3 [Compound 7, [Co(3F‐salophen)(NH3)2]NO3] | 100 µM
O=[N+]([O-])[O-].O=[N+]([O-])[O-].[Co+2] [Co, Co(NO3)2, reference compound] | >100 µM
[Co(3F‐salophen)(3F‐BnNH2)2]NO3 [Compound 6] | >100 µM

Tested on: HEK293 cells
Assay: Cytotoxicity assay (resazurin)
Type: cell-based, human
Settings: 20 h incubation, 0.8–100 μM; read-out: Tox CC50 (cytotoxicity against HEK293 cells)
Description: Cytotoxicity assay: HEK293 ATCC CRL‐1573 human embryonic kidney cells suspended in DMEM media (Gibco; 11330332) supplemented with 10 % FBS (GE; SH30084.03) and 100 U mL^−1 each penicillin/streptomycin (Invitrogen; 15070063) were counted manually in a Neubauer haemocytometer and seeded into 384‐well, black wall, clear bottom tissue culture plates (Corning; Cat. No. 3712) at 5000 cells per well in a volume of 20 μL. Manually, 20 μL of each compound dilution was plated in duplicate on the cells, for a final concentration range of 0.8–100 μM. The cells were incubated together with the compounds for 20 h at 37 °C, 5 % CO2.
Cytotoxicity (or cell viability) was measured by fluorescence, ex: 560/10 nm, em: 590/10 nm (F560/590), after addition of 5 μL of 25 μg mL^−1 resazurin ([…]; Sigma R7017) and after further incubation for 3 h at 37 °C in 5 % CO2, using media only as negative control and cells without inhibitors as positive control. CC50 (concentration at 50 % cytotoxicity) were calculated by curve fitting the inhibition values vs. log(concentration) of four replicates using a sigmoidal dose‐response function, with variable fitting values for bottom, top and slope using Prism 8. Tamoxifen (Sigma T5648) was used as internal control on each plate.

Molecule | CC50
CC1=[N+]2N=C(N)[S][Co-3]23([n+]2ccc(N(C)C)cc2)([n+]2ccc(N(C)C)cc2)[S]C(N)=N[N+]3=C1C.O=[N+]([O-])[O-] [Compound 3, [Co(ATS)(DMAP)2]NO3] | > 100 µM
O=[N+]([O-])[O-].[NH3+][Co-3]123([NH3+])[O]c4c(F)cccc4C=[N+]1c1ccccc1[N+]2=Cc1cccc(F)c1[O]3 [Compound 7, [Co(3F‐salophen)(NH3)2]NO3] | > 100 µM
O=[N+]([O-])[O-].O=[N+]([O-])[O-].[Co+2] [Co, Co(NO3)2, reference compound] | > 100 µM
[Co(3F‐salophen)(3F‐BnNH2)2]NO3 [Compound 6] | > 100 µM

Tested on: Escherichia coli ATCC 25922
Assay: CO-ADD bacterial broth microdilution MIC assay
Type: cell-based
Settings: CAMHB, 37 °C, 18 h, ≥ 80% inhibition

Molecule | MIC Ec (Escherichia coli ATCC 25922)
CC1=[N+]2N=C(N)[S][Co-3]23([n+]2ccc(N(C)C)cc2)([n+]2ccc(N(C)C)cc2)[S]C(N)=N[N+]3=C1C.O=[N+]([O-])[O-] [Compound 3, [Co(ATS)(DMAP)2]NO3] | > 32 µg/mL
O=[N+]([O-])[O-].[NH3+][Co-3]123([NH3+])[O]c4c(F)cccc4C=[N+]1c1ccccc1[N+]2=Cc1cccc(F)c1[O]3 [Compound 7, [Co(3F‐salophen)(NH3)2]NO3] | > 32 µg/mL
O=[N+]([O-])[O-].O=[N+]([O-])[O-].[Co+2] [Co, Co(NO3)2, reference compound] | > 32 µg/mL
[Co(3F‐salophen)(3F‐BnNH2)2]NO3 [Compound 6] | > 32 µg/mL

Tested on: Staphylococcus aureus ATCC 43300 (MRSA)
Assay: CO-ADD bacterial broth microdilution MIC assay
Type: cell-based
Settings: CAMHB, 37 °C, 18 h, ≥ 80% inhibition

Molecule | MIC Sa (Staphylococcus aureus ATCC 43300, MRSA)
CC1=[N+]2N=C(N)[S][Co-3]23([n+]2ccc(N(C)C)cc2)([n+]2ccc(N(C)C)cc2)[S]C(N)=N[N+]3=C1C.O=[N+]([O-])[O-] [Compound 3, [Co(ATS)(DMAP)2]NO3] | > 32 µg/mL
O=[N+]([O-])[O-].[NH3+][Co-3]123([NH3+])[O]c4c(F)cccc4C=[N+]1c1ccccc1[N+]2=Cc1cccc(F)c1[O]3 [Compound 7, [Co(3F‐salophen)(NH3)2]NO3] | > 32 µg/mL
O=[N+]([O-])[O-].O=[N+]([O-])[O-].[Co+2] [Co, Co(NO3)2, reference compound] | > 32 µg/mL
[Co(3F‐salophen)(3F‐BnNH2)2]NO3 [Compound 6] | 8 µg/mL

Same assay, conditions: value in μM given in brackets in the text

Molecule | MIC methicillin‐resistant S. aureus (MRSA)
[Co(3F‐salophen)(3F‐BnNH2)2]NO3 [Compound 6] | 11.5 µM

Tested on: not listed separately
Assay: Cyclic voltammetry
Type: physicochemical
Settings: DMF with 0.1 M TBAP (this work)
Description: Cyclic voltammetry: Electrochemical measurements were carried out in the same manner as reported previously. ^[25b] Experiments were conducted using a Pine WaveNow potentiostat with a three‐electrode setup consisting of a glassy carbon working electrode, a platinum counter electrode, and an Ag wire quasi‐reference electrode. Complexes were dissolved in anhydrous DMF with 0.10 M [Bu4N][PF6] (TBAP) as the supporting electrolyte. Potentials were referenced using an internal standard of the ferrocene/ferricenium couple at 0.45 V vs. the saturated calomel electrode (SCE). ^[33] The sample cell was deoxygenated by bubbling nitrogen gas through the solution prior to analysis and maintained under a blanket of nitrogen during the experiment.

Molecule | First reduction E pc | Second reduction E 1/2
CC1=[N+]2N=C(N)[S][Co-3]23([n+]2ccc(N(C)C)cc2)([n+]2ccc(N(C)C)cc2)[S]C(N)=N[N+]3=C1C.O=[N+]([O-])[O-] [Compound 3, [Co(ATS)(DMAP)2]NO3] | −0.69 V vs. SCE | −1.17 V vs. SCE
O=[N+]([O-])[O-].[NH3+][Co-3]123([NH3+])[O]c4c(F)cccc4C=[N+]1c1ccccc1[N+]2=Cc1cccc(F)c1[O]3 [Compound 7, [Co(3F‐salophen)(NH3)2]NO3] | −0.75 V vs. SCE | −1.08 V vs. SCE
[Co(3F‐salophen)(3F‐BnNH2)2]NO3 [Compound 6] | −0.59 V vs. SCE | −1.06 V vs. SCE
